These are literature values, as cited in article PMC4686915, “An engineered scorpion toxin analogue with improved Kv1.3 selectivity displays reduced conformational flexibility” (Scientific Reports, 2015).

In data set [1] the target is Kv1.2. From the text: (§1) Anuroctoxin (AnTx, αKTx 6.12) is a peptide toxin of 35 amino acids with a molecular weight of 4082.8, stabilized by four disulphide bridges, which was isolated by our workgroup from the venom of the scorpion Anuroctonus phaiodactylus. […] Our aim was to improve the selectivity of the wild-type toxin for Kv1.3 by site-directed changes in the primary sequence of the peptide. || Figure 1 Sequence comparison of Kv1.2- and Kv1.3-selective toxins. The aligned primary sequences are shown for toxins for which the affinities for both Kv1.2 and Kv1.3 channels were determined. Toxins were classified as Kv1.2-selective, non-selective or Kv1.3-selective based on the ratio of the determined Kd values for the two channels. TEXT PRINTED IN THE PICTURE: maurotoxin: KdKv1.2/KdKv1.3: 0.004; KdKv1.2 (nM): 0.8; KdKv1.3 (nM): 180; selectivity: Kv1.2 | CoTX1: KdKv1.2/KdKv1.3: 0.005; KdKv1.2 (nM): 27; K ... || First we aimed at reproducing the effects of natural anuroctoxin with the wild-type toxin produced by solid-state chemical synthesis, denoted as sAnTx. The blocking effect of sAnTx was first tested on Kv1.3 channels expressed by activated human lymphocytes. Channels were activated by depolarizing pulses to +50 mV to maximize the open probability and pulse duration was limited to 15 ms to minimize inactivation. The use of such short pulses prevented cumulative inactivation and allowed us to record the current amplitude every 15 s giving better temporal resolution of the kinetics of block develo ... || (+ 1 further places)

Data set [2] concerns the target T1, Kv1.3 (Homo sapiens, UniProt P22001). Details: endogenous in cells. To be noted: for selectivity class: Figure 1, based on ratio of Kd values for Kv1.2 and Kv1.3, ref not given; for block of Kv1.3, in words: toxins with tyrosine at the aromatic dyad position, ref 10 (ChTx), 13 (Css20), 32 (Tst26), 33 (noxiustoxin), 34 (hongotoxin-1), 30 (Pi1).
Description: as §1, with “(+ 3” for “(+ 1”

Data set [3] relates to hKv1.2 V381H. From the text:
(§2) We first targeted the essential dyad to improve selectivity. […] While the necessity of the dyad lysine was shown for other Kv channels as well[10], the requirement for the aromatic half of the dyad, especially the tyrosine, is not as straightforward for blocking Kv1.3.

The subject of data set [4] is hKv1.3 H399T.
Description: as §2

For data set [5], the target named is T1, Kv1.3.
Data set [6] deals with Kv1.2 (Homo sapiens) (UniProt P16389).
Where [7] appears, read: Figure 1 sequence comparison, literature toxins, ref not given, read-out: KdKv1.2.
The mark [8] stands for this setting: Figure 1 sequence comparison, literature toxins, ref not given.
[9] abbreviates: Figure 1 sequence comparison, literature toxins, ref not given, read-out: KdKv1.3.

Like-named read-outs stand apart in the source and are kept apart here.

T1 sequence (P22001 whole entry): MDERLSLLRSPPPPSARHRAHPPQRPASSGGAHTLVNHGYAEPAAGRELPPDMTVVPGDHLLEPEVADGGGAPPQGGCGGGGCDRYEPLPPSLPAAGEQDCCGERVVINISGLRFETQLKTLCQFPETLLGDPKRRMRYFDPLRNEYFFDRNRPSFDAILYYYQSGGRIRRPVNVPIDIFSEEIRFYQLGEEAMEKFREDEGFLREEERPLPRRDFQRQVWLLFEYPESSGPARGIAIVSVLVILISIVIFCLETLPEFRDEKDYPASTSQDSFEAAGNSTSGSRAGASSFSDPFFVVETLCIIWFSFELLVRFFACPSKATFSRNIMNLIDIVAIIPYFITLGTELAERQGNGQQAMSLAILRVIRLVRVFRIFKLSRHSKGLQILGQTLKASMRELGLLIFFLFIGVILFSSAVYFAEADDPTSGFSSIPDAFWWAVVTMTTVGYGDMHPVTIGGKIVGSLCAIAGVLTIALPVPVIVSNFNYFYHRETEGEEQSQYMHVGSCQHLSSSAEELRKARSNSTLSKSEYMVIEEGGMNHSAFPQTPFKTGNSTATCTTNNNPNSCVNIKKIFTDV
Chain of anuroctoxin (P0C166 whole entry): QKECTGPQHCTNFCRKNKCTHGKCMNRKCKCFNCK
Chain of Kv1.2 (Homo sapiens) (P16389 whole entry): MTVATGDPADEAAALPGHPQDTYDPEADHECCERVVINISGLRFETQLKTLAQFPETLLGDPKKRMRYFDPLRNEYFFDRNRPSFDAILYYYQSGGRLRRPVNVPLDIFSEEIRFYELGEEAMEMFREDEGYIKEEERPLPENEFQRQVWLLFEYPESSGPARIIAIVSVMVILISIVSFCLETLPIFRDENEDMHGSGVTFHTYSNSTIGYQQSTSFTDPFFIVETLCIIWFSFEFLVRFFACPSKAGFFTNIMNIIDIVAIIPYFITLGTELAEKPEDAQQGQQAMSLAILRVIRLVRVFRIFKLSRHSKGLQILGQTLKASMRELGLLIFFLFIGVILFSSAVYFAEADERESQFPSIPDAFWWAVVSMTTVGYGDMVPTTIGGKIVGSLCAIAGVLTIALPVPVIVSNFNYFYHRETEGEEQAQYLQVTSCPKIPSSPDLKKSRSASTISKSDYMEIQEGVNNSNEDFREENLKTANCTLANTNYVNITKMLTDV

Turning to Hongotoxin-1, the Kd in data set [1] (setting [7]) was 0.17 nM. Also, in data set [2], the selectivity class entry was “non-selective (non-selective)” and the “block of Kv1.3, in words” value is recorded as “nanomolar range”. In data set [2] (setting [8]), the KdKv1.2/KdKv1.3 was 1.9. Moreover, the Kd in data set [2] (setting [9]) is 0.09 nM.

Take charybdotoxin [ChTx]: the Kd in data set [1] (setting [7]) was 14 nM. In data set [2], the selectivity class result is “non-selective (non-selective)” and the “block of Kv1.3, in words” value is recorded as “nanomolar range”. In addition, the KdKv1.2/KdKv1.3 in data set [2] (setting [8]) is listed as 5.4. Besides, the Kd in data set [2] (setting [9]) was 2.6 nM.

Consider anuroctoxin [AnTx], for which the Kd in data set [1] (setting [7]) is 6 nM; in data set [1] (listed as natural toxin, read-out: Kd Kv1.2 of natural anuroctoxin) it was 6.1 nM; in data set [2] (listed as natural toxin, read-out: Kd Kv1.3 of natural anuroctoxin), 0.7 nM. For the same substance, in data set [2], the selectivity class result is “non-selective (non-selective)”. Besides, the KdKv1.2/KdKv1.3 in data set [2] (setting [8]) is given as 9. In data set [2] (natural toxin), the “selectivity of the natural toxin for Kv1.3 over Kv1.2” value is recorded as 9 fold.

On to kaliotoxin [KTX], for which the Kd in data set [1] (setting [7]) was above 1000 nM; in data set [2] (setting [9]), 0.65 nM. The selectivity class entry in data set [2] is “Kv1.3 (Kv1.3-selective)”. For the same substance, the KdKv1.2/KdKv1.3 in data set [2] (setting [8]) is listed as above 1538.

Take maurotoxin: the values for the Kd in data set [1] (setting [7]) and in data set [2] (setting [9]) were 0.8 nM and 180 nM, respectively. Moreover, in data set [3], the “MTX binding affinity of hKv1.2 with V381H mutation” value is “drastically reduced MTX binding affinity”. Also, the “MTX sensitivity of Kv1.3 with H399T replacement” value in data set [4] is on record as “made Kv1.3 sensitive to MTX”. In data set [2], the selectivity class result is “Kv1.2 (Kv1.2-selective)”. The KdKv1.2/KdKv1.3 in data set [2] (setting [8]) was 0.004.

Turning to anuroctoxin (from UniProt P0C166), the Kd in data set [5] is 0.73 nM; in data set [6], 6.14 nM.

On to “Noxiustoxin (TIINVKCTSPKQCSKPCKELYGSSAGAKCMNGKCKCYNN; UniProt P08815 1-39, looked up) [scorpion toxin]”, for which the Kd in data set [1] (setting [7]) was 2 nM. In data set [2], the selectivity class entry was “non-selective (non-selective)” and the “block of Kv1.3, in words” value was “nanomolar range”. Besides, the KdKv1.2/KdKv1.3 in data set [2] (setting [8]) is recorded as 2. Moreover, the Kd in data set [2] (setting [9]) is 1 nM.
